Experiments:
[1] = Hydrolytic (chemical) stability in Tris-HCl buffer pH 7.4; type: physicochemical; details: 50 mM Tris-HCl buffer pH 7.4, incubation 30 min, without microsomes
Procedure: (§1) For all 43 compounds, a first evaluation of their chemical and metabolic stabilities toward hydrolysis was performed by incubating them in buffer under physiological conditions (50 mM Tris-HCl, pH 7.4) and in mouse liver microsomes (Table 1). This model was chosen because, similar to the human liver, both of the carboxylesterase isoforms are present. […] A more interesting trend was instead possible to observe with benzoic acids.
(§2) Hydrolytic stability in MLM and HLM
(§3) The standard incubation mixture (200 µL final volume) was carried out in a 50 mM TRIS-HCl buffer (pH 7.4) containing 150 mM KCl, tween 80 as cosolvent (0.8 mg/mg protein), and the substrate (10 μM). After pre-equilibration of the mixture, an appropriate volume of MLM or HLM suspension was added to give a final protein concentration of 1.0 mg/mL. The mixture was shaken for 30 minutes at 37 °C. Control incubations were carried out without the presence or microsomes or in pure acetonitrile. Each incubation was stopped by the addition of 200 µL ice-cold acetonitrile, vortexed and centrifuged at 13000 rpm for 5 min. The supernatants were analyzed by LC-HRMS. […]

[2] = Hydrolytic stability in mouse liver microsomes (MLM); type: in vitro ADME; details: 30 min; for Residual substrate percentage, MLM: mouse liver microsomes 1.0 mg/mL protein, substrate 10 μM, 37 °C
Procedure: as §1, §2, §3

[3] = Hydrolytic stability in human liver microsomes (HLM); type: in vitro ADME; details: 30 min; for Residual substrate percentage, HLM: human liver microsomes 1.0 mg/mL protein, substrate 10 μM, 37 °C
Procedure: This was made in light of the fact that the overall metabolizing capability of murine hepatic enzymes, including carboxylesterases, is supposed to be higher compared to the human ones.[17]
as §2, §3

SMILES | Residual substrate percentage, buffer [1] | Residual substrate percentage, MLM [2] | Hydrolysis of the ester group in mouse liver microsomes (in words) [2] | Residual substrate percentage, HLM [3] | Hydrolytic stability in human liver microsomes (in words) [3]
CC(C)(C)NC(=O)C(OC(=O)c1ccccc1)c1ccc(Cl)cc1 (stereo not drawn) [Compound 72] | >99% | <1% | rapidly cleaved | – | –
CC(C)(C)NC(=O)COC(=O)C(=O)c1ccccc1 [Compound 83] | <1% | <1% | completely unstable | – | –
CC(C)(C)NC(=O)COC(=O)C(C)(C)c1ccc(Br)cc1 [Compound 91] | >99% | 12% | easily hydrolyzed | – | –
COC(=O)c1ccccc1 [Compound 11, methyl benzoate, reference compound] | > 99% | < 1% | – | < 1% | –
CC(C)C(OC(=O)Cc1ccccc1)C(=O)NC(C)(C)C (stereo not drawn) [Compound 74, 1-(tert-butylamino)-3-methyl-1-oxobutan-2-yl 2-phenylacetate] | >99% | 17% | easily hydrolyzed | – | –
CC(C)(C)NC(=O)COC(=O)C12CC3CC(CC(C3)C1)C2 [Compound 97] | >99% | 1% | rapidly metabolized | 2% | instability
CC(=O)OC(C(=O)NC(C)(C)C)C(C)C (stereo not drawn) [Compound 70] | 94% | 5% | easily hydrolyzed | – | –
CC(C)C(OC(=O)CCCCCc1ccccc1)C(=O)NC(C)(C)C (stereo not drawn) [Compound 75, 1-(tert-butylamino)-3-methyl-1-oxobutan-2-yl 6-phenylhexanoate] | >99% | <1% | easily hydrolyzed | – | –
CC(C)C(OC(=O)/C=C/c1ccccc1)C(=O)NC(C)(C)C (stereo not drawn) [Compound 65] | >99% | <1% | completely unstable | 3% | instability
Cc1ccc(C(=O)OC(C(=O)NC(C)(C)C)C(C)C)cc1 (stereo not drawn) [Compound 67] | 94% | <1% | – | – | –
Cc1cccc(C)c1C(=O)OC(C(=O)NC(C)(C)C)C(C)C (stereo not drawn) [Compound 93] | >99% | >99% | – | – | –
CCCCCC(=O)OC(C(=O)NC(C)(C)C)C(C)C (stereo not drawn) [Compound 71] | 91% | <1% | easily hydrolyzed | – | –
Cc1cccc(C)c1C(=O)OCC(=O)NC(C)(C)C [Compound 79] | 95% | 94% | – | – | –
CC(C)(C)NC(=O)COC(=O)c1ccccc1-c1ccccc1 [Compound 88] | >99% | – | – | – | –
COc1ccc(C(=O)OC(C(=O)NC(C)(C)C)C(C)C)cc1 (stereo not drawn) [Compound 66] | 92% | <1% | – | – | –
Cc1cccc(C)c1C(=O)OCC(=O)NCc1ccccc1 [Compound 94] | >99% | >99% | – | – | –
CC(C)(C)NC(=O)COC(=O)c1c(Cl)cccc1Cl [Compound 95] | >99% | 78% | – | – | –
CCCCCCC(OC(=O)c1cccs1)C(=O)NC(C)(C)C (stereo not drawn) [Compound 64] | >99% | <1% | – | <1% | instability

SMILES | Residual substrate percentage, buffer [1] | Residual substrate percentage, MLM [2] | Hydrolysis of the ester group in mouse liver microsomes (in words) [2] | Residual substrate percentage, HLM [3] | Hydrolytic stability in human liver microsomes (in words) [3]
CC(C)(C)NC(=O)COC(=O)c1c(F)cccc1F [Compound 85] | >99% | <1% | completely hydrolyzed | – | –
CC(C)C(OC(=O)c1ccccc1)C(=O)NC(C)(C)C (stereo not drawn) [Compound 59] | 94% | <1% | – | – | –
CC(C)(C)NC(=O)COC(=O)c1ccccc1Cl [Compound 90] | >99% | <1% | the hydrolysis of the ester was complete | – | –
CC(C)(C)NC(=O)C(OC(=O)c1ccccc1)c1ccccc1 (stereo not drawn) [Compound 62] | >99% | <1% | – | – | –
CC(C)(C)NC(=O)COC(=O)c1ccccc1I [Compound 87] | >99% | <1% | the hydrolysis of the ester was complete | – | –
CCCCCCCCCCCC(=O)OC(C(=O)NC(C)(C)C)C(C)C (stereo not drawn) [Compound 77, 1-(tert-butylamino)-3-methyl-1-oxobutan-2-yl dodecanoate] | 77% | 7% | easily hydrolyzed | – | –
CC(C)C(OC(=O)COc1ccccc1)C(=O)NC(C)(C)C (stereo not drawn) [Compound 76, 1-(tert-butylamino)-3-methyl-1-oxobutan-2-yl 2-phenoxyacetate] | >99% | <1% | completely unstable | – | –
CCC(C(=O)OCC(=O)NC(C)(C)C)c1ccccc1 (stereo not drawn) [Compound 92] | >99% | <1% | easily hydrolyzed | – | –
CC(C)(C)NC(=O)COC(=O)c1ccccc1 [Compound 61] | >99% | <1% | – | – | –
CC(C)(C)NC(=O)COC(=O)c1c(Cl)cccc1C(F)(F)F [Compound 96] | >99% | >99% | – | – | –
Cc1ccccc1C(OC(=O)c1ccccc1)C(=O)NC(C)(C)C (stereo not drawn) [Compound 56] | >99% | <1% | – | – | –
Cc1ccccc1C(=O)OCC(=O)NC(C)(C)C [Compound 81] | >99% | <1% | the hydrolysis of the ester was complete | – | –
CC(C)(C)NC(=O)COC(=O)Cc1c(Cl)cccc1Cl [Compound 82] | >99% | 1% | easily hydrolyzed | – | –
CC(C)(C)NC(=O)COC(=O)c1ccccc1Br [Compound 86] | >99% | <1% | the hydrolysis of the ester was complete | – | –
CC(C)C(OC(=O)c1ccc([N+](=O)[O-])cc1)C(=O)NC(C)(C)C (stereo not drawn) [Compound 69] | >99% | <1% | – | – | –
COc1ccc(C(OC(=O)c2ccccc2)C(=O)NC(C)(C)C)cc1 (stereo not drawn) [Compound 63] | 92% | <1% | – | – | –
CCCCCCC(OC(=O)c1ccccc1)C(=O)NC(C)(C)C (stereo not drawn) [Compound 60] | 93% | <1% | – | – | –
CC(C)C(OC(=O)c1ccc(Cl)cc1)C(=O)NC(C)(C)C (stereo not drawn) [Compound 68] | >99% | <1% | – | – | –

From article PMC9743426, “Expanding the Chemical Space of Drug-like Passerini Compounds: Can α-Acyloxy Carboxamides Be Considered Hard Drugs?” (ACS Medicinal Chemistry Letters, 2022)
